Source: patent US8754057B2, “Inhibition of apoptosis-specific eIF-5A(eIF-5A1″) with antisense oligonucleotides and siRNA as anti-inflammatory therapeutics” (Senesco Technologies, Inc., priority 2003, dated 2014)

Tested on: lamina cribrosa cell line #506
Test: TUNEL labeling of siRNA-transfected LC cells treated with TNF-α and camptothecin
Format: cell-based, human
Conditions: LC #506, TNF-α and camptothecin 24 h
Protocol: Lamina cribrosa cell line #506 cells were seeded at 7500 cells per well onto an 8-well culture slide. Three days later the LC cells were transfected with either apoptosis-specific eIF-5A siRNA #1 (SEQ ID NO:30) or control siRNA #5 (SEQ ID NO:34). 72 hours after transfection, the transfected cells were treated with 10 ng/ml TNF-α plus 50 μM camptothecin. Twenty-four hours later the cells were stained with Hoescht 33258 and DNA fragmentation was evaluated in situ using the terminal deoxynucleotidyl transferase-mediated dUTP-digoxigenin nick end labeling (TUNEL) method. Panel A represents the slide observed by fluorescence microscopy using a fluorescein filter to visualize TUNEL-labeling of the fragmented DNA of apoptotic cells. Panel B represents the same slide observed by through a UV filter to visualize the Hoescht-stained nuclei. The results are representative of two independent experiments. All pictures were taken at 400 times magnification.
Transfected cells that had been treated with TNF-α and camptothecin for 24 hours were stained with Hoescht 33258 in order to determine the percentage of cells undergoing apoptosis. Briefly, cells were fixed with a 3:1 mixture of absolute methanol and glacial acetic acid and then incubated with Hoescht stain (0.5 μg/ml Hoescht 33258 in PBS). After a 10 minute incubation in the dark, the staining solution was discarded, the chambers separating the wells of the culture slide were removed, and the slide was washed 3 times for 1 minute with deionized water. After washing, a few drops of Mcllvaine's buffer (0.021 M citric acid, 0.058 M Na2HPO4.7H2O; pH 5.6) was added to the cells and overlaid with a coverslip. The stained cells were viewed under a fluorescent microscope using a UV filter. Cells with brightly stained or fragmented nuclei were scored as apoptotic. A minimum of 200 cells were counted per well. The DeadEnd™ Fluorometric TUNEL (Promega) was also used to detect the DNA fragmentation that is a characteristic feature of apoptotic cells. Following Hoescht staining, the culture slide was washed briefly with distilled water, and further washed by immersing the slide twice for 5 minutes in PBS (137 mM NaCl, 2.68 mM KCl, 1.47 mM KH2PO4, 8.1 mM Na2HPO4), blotting the slide on paper towel between washes. The cells were permeabilized by immersing them in 0.2% Triton X-100 in PBS for 5 minutes. The cells were then washed again by immersing the slide twice for 5 minutes in PBS and blotting the slide on paper towel between washes. 25 μl of equilibration buffer [200 mM potassium cacodylate (pH 6.6), 25 mM. Tris-HCl (pH 6.6), 0.2 mM dithiothreitol, 0.25 mg/ml bovine serum albumin, and 2.5 mM cobalt chloride] was added per well and incubated for 5 to 10 minutes. […] Any cells with brightly stained or fragmented nuclei were scored as apoptotic. […]

## siRNA #1: siRNA against human apoptosis-specific eIF-5A (SEQ ID NO:30); target 5′ AAAGGAATGACTTCCAGCTGA 3′ (SEQ ID NO: 81) (AAAGGAAUGACUUCCAGCUGATT; RNA, all phosphodiester, T or U not given here; listed as Homo sapiens)
3 days after transfection
  LC cells positive for TUNEL staining: 8%
TUNEL
  protection from apoptosis relative to the control siRNA: greater than 80%
